Where “and” joins values, the source holds several entries; their conditions need not be identical. Equal entries are not always repeated. Where two headings read alike, the source gives them in different places.
Columns and labels:
[1] = test system: myeloid cell line derived from MUTZ-3
[2] = test system: myeloid cell line derived from MUTZ-3; remark: listed apart in the source
[3] = test system: myeloid cell line derived from MUTZ-3; assay: GARD random forest model predicting CLP categories (52 transcripts, Example A); conditions: test set; for GARD predicted CLP: majority voting across replicates; for predicted CLP: separate replicates
[4] = cited from earlier work; for binary class: sens / non-sens; for true CLP: test set
[5] = cited from earlier work; for binary class (HP*): based on human potency [41] where available, otherwise according to CLP; for HP: human potency, chemicals of random forest training and test set; for Human potency [41]: test set
[6] = test system: myeloid cell line derived from MUTZ-3; assay: Cytotoxicity / viability by flow cytometry (propidium iodide), 24 hours exposure; conditions: yes/no; MUTZ-3 derived cells
[7] = test system: myeloid cell line derived from MUTZ-3; assay: GARD binary classification (SVM on GARD prediction signature, 200 transcripts); conditions: SVM, median calibrated decision value of replicates >0 = sensitizer
[8] = test system: myeloid cell line derived from MUTZ-3; remark: listed apart in the source
[9] = CLP annotation of 37 novel chemicals
[10] = chemicals of random forest training and test set

Structure (SMILES)	GARD predicted CLP [3]	predicted CLP [3]	CLP [4, 9]	CLP [4, 10]	binary class [4, 10]	true CLP ([4]; per replicate line)	true CLP [4]	binary class (HP*) [5]	HP [5]	Human potency [41] [5]	cytotox [6]	GARD binary prediction [7]	other results
CCOc1cc(C=O)ccc1O [ethyl vanillin]													GARD predicted CLP [1]: no cat; predicted CLP [1]: no cat; predicted CLP ([1]; human, 24 h): 1B
Nc1ccccc1 [aniline]													GARD binary classification relative to cut-off defined by benchmark samples [2]: close to the cut-off
CC(C)(c1ccc(OCC2CO2)cc1)c1ccc(OCC2CO2)cc1 (stereo not drawn) [bisphenol A-diglycidyl ether]	1A	1A											GARD binary prediction [2]: S
CC(C)(O)CCCC1=CCC(C=O)CC1 (stereo not drawn) [lyral]	1A	1A (2×) and 1B	1B	1B	sens	1B	1B	S (HP 1-4 = S)	2	2	yes	S	CLP ([4]; Table 10, chemicals test set 1): 1B
CCCCC/C(=C/c1ccccc1)CO [amylcinnamyl alcohol]													GARD binary prediction [2]: S; cytotox [8]: yes
CCCCOCC1CO1 (stereo not drawn) [butyl glycidyl ether]													GARD binary classification relative to cut-off defined by benchmark samples [2]: close to the cut-off; cytotox [8]: yes; GARD predicted CLP ([1]; human, 24 h): 1A
O=CCCCC=O [glutaraldehyde]	1A	1A	1A	1A	sens	1A	1A	S (HP 1-4 = S)	2	2	yes	S	CLP ([4]; Table 10, chemicals test set 1): 1A
O=C(OCc1ccccc1)c1ccccc1 [benzyl benzoate]	1B	1B									yes	S	
CCCOC(=O)c1cc(O)c(O)c(O)c1 [propyl gallate]	1A	1A	1A	1A	sens	1A	1A	S (HP 1-4 = S)	2	2	yes	S	
